test system: rhIFNγ stimulated STAT-3 phosphorylation in the A549 human epithelial cell line; assay: A549 Cell Assay: Inhibition of pSTAT3; format: cell-based; conditions: Homo sapiens; A549 cells
How it was run: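 Percent inhibition of STAT3 Tyr705 phosphorylation was measured by MSD immunoassay of cell lysates. A549 cells were given compound for 1 h at 37° C (final 0.3 nM to 10 μM, 0.1% DMSO, in 0.2% BSA DMEM), followed by 30 min of rhIFNγ stimulation at 20 ng/mL final. Unstimulated DMSO wells served as background.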

| SMILES | IC50 |
| --- | --- |
| CCc1cc(O)c(F)cc1-c1cc2[nH]nc(C(N)=O)c2c(NCc2ccccc2N(C)S(=O)(=O)c2ccccc2)n1 [Example 40, 6-(2-Ethyl-5-fluoro-4-hydroxyphenyl)-4-({2-[methyl(phenylsulfonyl)amino]benzyl}amino)-1H-pyrazolo[4,3-c]pyridine-3-carboxamide] | 50 nM |
| CNC(=O)c1n[nH]c2cc(-c3cc(F)c(O)cc3CC(F)(F)F)nc(NCC(C)C)c12 [Example 16, 6-[5-fluoro-4-hydroxy-2-(2,2,2-trifluoroethyl)phenyl]-N-methyl-4-[(2-methylpropyl)amino]-1H-pyrazolo[4,3-c]pyridine-3-carboxamide] | 65.1 nM |
| CCc1cc(O)c(F)cc1-c1cc2[nH]nc(C(=O)NC)c2c(NCc2cc(F)ccc2N(C)S(C)(=O)=O)n1 [Example 7, 6-(2-ethyl-5-fluoro-4-hydroxyphenyl)-4-({5-fluoro-2-[methyl(methylsulfonyl)amino]benzyl}amino)-N-methyl-1H-pyrazolo[4,3-c]pyridine-3-carboxamide] | 5.7 nM |
| CCN(c1ncc(Cl)cc1CNc1nc(-c2cc(F)c(O)cc2CC(F)(F)F)cc2[nH]nc(C(N)=O)c12)S(C)(=O)=O [Example 71, 4-[({5-chloro-2-[ethyl(methylsulfonyl)amino]pyridin-3-yl}methyl)amino]-6-[5-fluoro-4-hydroxy-2-(2,2,2-trifluoroethyl)phenyl]-1H-pyrazolo[4,3-c]pyridine-3-carboxamide] | 110 nM |
| CNC(=O)c1n[nH]c2nc(-c3cc(F)c(O)cc3CC(F)(F)F)nc(NCc3cc(F)ccc3N(C)S(C)(=O)=O)c12 [Example 104, 4-((5-fluoro-2-(N-methylmethylsulfonamido)benzyl)amino)-6-(5-fluoro-4-hydroxy-2-(2,2,2-trifluoroethyl)phenyl)-N-methyl-1H-pyrazolo[3,4-d]pyrimidine-3-carboxamide] | 292 nM |
| CS(=O)(=O)N(CCO)c1ccccc1CNc1nc(-c2cc(F)c(O)cc2CC(F)(F)F)nc2[nH]nc(C(N)=O)c12 [Example 101, 6-(5-fluoro-4-hydroxy-2-(2,2,2-trifluoroethyl)phenyl)-4-((2-(N-(2-hydroxyethyl)methyl-sulfonamido)benzyl)amino)-1H-pyrazolo[3,4-d]pyrimidine-3-carboxamide] | > 10000 nM |

Continued, values first:

| IC50 | SMILES |
| --- | --- |
| 98.6 nM | CN(c1ccccc1CNc1nc(-c2cc(F)c(O)cc2CC(F)(F)F)cc2[nH]nc(-n3cccn3)c12)S(C)(=O)=O [Example 163, N-{2-[({6-[5-Fluoro-4-hydroxy-2-(2,2,2-trifluoroethyl)phenyl]-3-(1H-pyrazol-1-yl)-1H-pyrazolo[4,3-c]pyridin-4-yl}amino)methyl]phenyl}-N-methylmethanesulfonamide] |
| 21.3 nM | CNC(=O)c1n[nH]c2cc(-c3cc(F)c(O)cc3CC(F)(F)F)nc(NCc3cccnc3N(C)S(C)(=O)=O)c12 [Example 53, 6-[5-fluoro-4-hydroxy-2-(2,2,2-trifluoroethyl)phenyl]-N-methyl-4-[({2-[methyl(methylsulfonyl)amino]pyridin-3-yl}methyl)amino]-1H-pyrazolo[4,3-c]pyridine-3-carboxamide] |
| > 10000 nM | CNC(=O)c1n[nH]c2cc(-c3cc(F)c(O)cc3CC(F)(F)F)nc(NCc3cnccc3N(C)S(C)(=O)=O)c12 [Example 48, 6-[5-fluoro-4-hydroxy-2-(2,2,2-trifluoroethyl)phenyl]-N-methyl-4-[({4-[methyl(methylsulfonyl)amino]pyridin-3-yl}methyl)amino]-1H-pyrazolo[4,3-c]pyridine-3-carboxamide] |
| 18.7 nM | CCc1cc(O)c(F)cc1-c1cc2[nH]nc(-c3nc(C)c[nH]3)c2c(NCc2ccccc2N(C)S(C)(=O)=O)n1 [Example 159, N-[2-({[6-(2-Ethyl-5-fluoro-4-hydroxyphenyl)-3-(4-methyl-1H-imidazol-2-yl)-1H-pyrazolo[4,3-c]pyridin-4-yl]amino}methyl)phenyl]-N-methylmethanesulfonamide] |

Source: US10022376B2 (Pfizer Inc., priority 2014, dated 2018)
